Values joined by “and” are separate entries in the source; they are usually repeats but may differ in a detail not shown here. Equal entries are not always repeated.
Tests used:
[1] = Hygroscopicity studies (vapor sorption isotherm); assay type: physicochemical
[2] = Solid state stability studies, 21 days; assay type: physicochemical; conditions: for Total impurities: HPLC area-%
Method: The solid-state stability of crystalline E7974-form M1—unsolvated was evaluated for 21 days. […] In addition, a different peak appeared at only a 0.12% level for sample stored at 40° C. and exposed to 75% relative humidity.

[3] = system: several cell lines, including human lung carcinoma, human colon carcinoma and human melanoma; conditions: several cell lines incl. human lung carcinoma; cited from earlier work
[4] = 25° C., visible light (6.8 million lux-hours), 21 d

SMILES	increase in weight ([1]; at 70% RH, 25° C., FIG. 2)	deliquescence ([1]; high relative humidity (% RH), FIG. 1)	water adsorption reversibility ([1]; up to 70% RH)	hygroscopicity classification ([1]; up to 70% RH, criterion: hygroscopic = not less than 3.0% water increase at 75% RH for a week)	hygroscopicity ([1]; vapor sorption isotherm, FIG. 1)	Total impurities ([2]; 25° C., light shield, 21 d)	Wt/Wt ([2]; 25° C., light shield, 21 d, control: −20° C. light shielded sample)	Wt/Wt [2, 4]	Total impurities [2, 4]	Wt/Wt ([2]; 40° C., 75% RH, 21 d)	Total impurities ([2]; 40° C., 75% RH, 21 d)	level of a different new impurity peak ([2]; 40° C., 75% relative humidity, 21 days)	Wt/Wt ([2]; 60° C., light shield, 21 d)	Total impurities ([2]; 60° C., light shield, 21 d)	level of new impurity peaks ([2]; 21 days at 25° C. and visible light, two new peaks)	Total impurities ([2]; Initial, sum of all impurities >0.05%)	changes in the impurity profile ([2]; shielded from light, stored at 25 and 60° C., 21 days)	Total impurities ([2]; −20° C., light shield, 21 d)	antitumor activity [3]
C/C(=C\[C@H](C(C)C)N(C)C(=O)[C@@H](NC(=O)[C@H]1CCCCN1C(C)C)C(C)(C)C)C(=O)O [Crystalline E7974-form M1—unsolvated, (2E,4S)-4-[(N-{[(2R)-1-isopropylpiperidin-2-yl]carbonyl}-3-methyl-L-valyl)(methyl)amino]-2,5-dimethylhex-2-enoic acid]	1.9%	deliquesces at high relative humidity	reversible up to 70% RH	non-hygroscopic	slightly hygroscopic	0.76%	100.3%	99.9%	0.87%	102.2%	0.89%	0.12%	100.9%	0.78%	0.05% and 0.09%	0.72%	No significant changes	0.72%	–
CN[C@H](C(=O)N[C@H](C(=O)N(C)[C@H](/C=C(\C)C(=O)O)C(C)C)C(C)(C)C)C(C)(C)c1cn(C)c2ccccc12 [Hemiasterlin]	–	–	–	–	–	–	–	–	–	–	–	–	–	–	–	–	–	–	exhibits antitumor activity
